Reference: ChEMBL document CHEMBL1201862, “PubChem BioAssay data set” (2004)
Calls of active or inactive are those of the source.

Experiments:
[1] = target: Glyceraldehyde-3-phosphate dehydrogenase (Homo sapiens, UniProt P04406)
[2] = target: T1, Alkaline phosphatase, tissue-nonspecific isozyme (Homo sapiens, UniProt P05186); test: potency against alkaline phosphatase TNAP – biochemical, luminescent, dose response, SAR follow-up (AID 1056)
T1 sequence (P05186 whole entry): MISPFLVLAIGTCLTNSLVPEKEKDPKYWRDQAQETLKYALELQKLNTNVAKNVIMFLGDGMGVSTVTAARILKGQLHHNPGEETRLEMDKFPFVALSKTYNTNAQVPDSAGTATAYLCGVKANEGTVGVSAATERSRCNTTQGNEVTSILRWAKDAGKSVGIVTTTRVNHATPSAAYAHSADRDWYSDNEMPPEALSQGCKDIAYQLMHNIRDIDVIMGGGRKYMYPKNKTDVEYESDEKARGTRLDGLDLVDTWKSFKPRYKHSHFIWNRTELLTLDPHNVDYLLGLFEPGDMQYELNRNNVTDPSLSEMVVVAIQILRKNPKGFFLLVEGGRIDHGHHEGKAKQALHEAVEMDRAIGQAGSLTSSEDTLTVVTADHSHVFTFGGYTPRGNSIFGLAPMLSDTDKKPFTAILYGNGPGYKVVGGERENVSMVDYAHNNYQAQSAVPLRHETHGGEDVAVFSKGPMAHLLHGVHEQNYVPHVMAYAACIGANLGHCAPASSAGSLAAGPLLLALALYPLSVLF

[3] = target: T2, Acyl-homoserine lactone acylase PvdQ (Pseudomonas aeruginosa (strain LESB58), UniProt Q9I194); test: PvdQ acylase enzyme activity blockers – biochemical, fluorescence, plate reader and imaging, cherry-picks, dose response (AID 493231)
T2 sequence (Q9I194 whole entry): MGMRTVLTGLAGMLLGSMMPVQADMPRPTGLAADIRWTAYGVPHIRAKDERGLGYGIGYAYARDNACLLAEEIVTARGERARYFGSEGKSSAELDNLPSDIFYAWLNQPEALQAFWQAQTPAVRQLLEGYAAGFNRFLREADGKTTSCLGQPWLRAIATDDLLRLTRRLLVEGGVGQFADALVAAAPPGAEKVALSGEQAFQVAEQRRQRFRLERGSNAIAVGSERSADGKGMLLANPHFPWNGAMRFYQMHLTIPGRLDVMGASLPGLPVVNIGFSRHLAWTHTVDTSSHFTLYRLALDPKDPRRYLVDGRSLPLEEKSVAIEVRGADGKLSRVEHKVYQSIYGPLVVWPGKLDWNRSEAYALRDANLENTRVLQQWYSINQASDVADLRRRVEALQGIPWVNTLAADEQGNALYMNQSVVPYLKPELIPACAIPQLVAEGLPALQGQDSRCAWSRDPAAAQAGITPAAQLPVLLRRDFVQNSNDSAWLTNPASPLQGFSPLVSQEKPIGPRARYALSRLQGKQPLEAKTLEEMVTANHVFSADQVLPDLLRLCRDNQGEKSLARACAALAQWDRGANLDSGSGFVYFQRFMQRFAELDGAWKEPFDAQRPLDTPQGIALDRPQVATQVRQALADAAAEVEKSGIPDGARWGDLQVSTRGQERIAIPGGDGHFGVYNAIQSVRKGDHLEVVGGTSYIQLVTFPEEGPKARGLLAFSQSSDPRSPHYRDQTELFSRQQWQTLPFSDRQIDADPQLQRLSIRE

[4] = target: Eukaryotic translation initiation factor 4E (Mus musculus, UniProt P63073); test: blockers of eIF4G binding by eIF4E – biochemical, TR-FRET, dose response (AID 855); format: functional;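 further: potency for disrupting eIF4E binding to eIF4GI seen as loss of FRET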
Sequence of Eukaryotic translation initiation factor 4E (P63073 whole entry): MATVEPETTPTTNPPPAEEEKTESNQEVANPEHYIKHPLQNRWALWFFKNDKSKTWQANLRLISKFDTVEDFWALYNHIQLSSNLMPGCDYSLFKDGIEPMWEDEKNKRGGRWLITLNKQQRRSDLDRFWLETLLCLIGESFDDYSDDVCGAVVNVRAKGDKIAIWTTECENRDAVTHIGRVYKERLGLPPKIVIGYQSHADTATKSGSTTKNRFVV

Beta-galactosidase = Beta-galactosidase (Escherichia coli, UniProt Q8VNN2); test: PubChem AID 485352; format: functional
Sequence of Beta-galactosidase (Q8VNN2 whole entry): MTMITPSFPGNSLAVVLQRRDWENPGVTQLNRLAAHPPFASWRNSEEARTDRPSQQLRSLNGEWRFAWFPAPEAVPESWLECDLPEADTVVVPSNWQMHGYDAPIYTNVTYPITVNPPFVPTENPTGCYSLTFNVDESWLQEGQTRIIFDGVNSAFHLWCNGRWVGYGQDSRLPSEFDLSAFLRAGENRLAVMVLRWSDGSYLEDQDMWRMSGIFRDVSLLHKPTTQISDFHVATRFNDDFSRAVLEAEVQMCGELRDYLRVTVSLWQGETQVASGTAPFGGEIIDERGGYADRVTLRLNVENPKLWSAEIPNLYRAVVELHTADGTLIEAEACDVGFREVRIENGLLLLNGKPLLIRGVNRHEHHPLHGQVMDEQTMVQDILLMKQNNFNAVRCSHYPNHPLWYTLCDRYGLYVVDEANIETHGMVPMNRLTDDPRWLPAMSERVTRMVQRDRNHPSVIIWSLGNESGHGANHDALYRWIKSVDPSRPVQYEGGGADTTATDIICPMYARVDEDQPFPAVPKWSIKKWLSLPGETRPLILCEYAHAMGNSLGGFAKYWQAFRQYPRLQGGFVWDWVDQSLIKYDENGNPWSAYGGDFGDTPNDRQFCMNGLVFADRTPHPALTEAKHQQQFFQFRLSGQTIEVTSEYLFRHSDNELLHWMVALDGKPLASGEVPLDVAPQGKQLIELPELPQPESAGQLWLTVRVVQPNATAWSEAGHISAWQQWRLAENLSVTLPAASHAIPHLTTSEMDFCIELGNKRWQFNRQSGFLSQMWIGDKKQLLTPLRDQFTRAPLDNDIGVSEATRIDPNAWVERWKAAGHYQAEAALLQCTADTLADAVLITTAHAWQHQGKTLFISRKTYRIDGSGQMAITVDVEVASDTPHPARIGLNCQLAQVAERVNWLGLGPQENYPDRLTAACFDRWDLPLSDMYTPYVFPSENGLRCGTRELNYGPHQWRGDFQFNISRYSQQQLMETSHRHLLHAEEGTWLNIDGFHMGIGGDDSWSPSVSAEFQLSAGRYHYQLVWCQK

[5] = target: T3, Type-1 angiotensin II receptor (Homo sapiens, UniProt P30556); test: antagonism of angiotensin II type 1 receptor – cell-based, uHTS hits, selectivity assay for APJ receptor antagonist project, dose response (AID 463214); format: functional;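 further: antagonist potency against angiotensin II stimulated AT1 response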
T3 sequence (P30556 whole entry): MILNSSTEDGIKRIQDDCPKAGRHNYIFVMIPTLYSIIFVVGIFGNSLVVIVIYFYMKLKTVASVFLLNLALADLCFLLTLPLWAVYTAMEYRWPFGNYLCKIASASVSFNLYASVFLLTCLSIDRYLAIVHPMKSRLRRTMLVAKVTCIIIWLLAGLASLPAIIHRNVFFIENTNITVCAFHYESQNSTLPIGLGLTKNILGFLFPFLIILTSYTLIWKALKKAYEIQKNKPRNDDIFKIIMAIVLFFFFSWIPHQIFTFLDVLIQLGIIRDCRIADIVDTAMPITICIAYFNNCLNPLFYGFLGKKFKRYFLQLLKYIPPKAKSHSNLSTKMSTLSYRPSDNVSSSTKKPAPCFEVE

Mucolipin-3 = target: T4, Mucolipin-3 (Homo sapiens, UniProt Q8TDD5); test: Fluorescence counterscreen assay for […] agonists: dose response cell-based high-throughput screening assay to identify agonists of the transient receptor potential channel ML3 (TRPML3). [Related pubchem assays: 1424, 1448 ]; format: functional
T4 sequence (Q8TDD5 whole entry): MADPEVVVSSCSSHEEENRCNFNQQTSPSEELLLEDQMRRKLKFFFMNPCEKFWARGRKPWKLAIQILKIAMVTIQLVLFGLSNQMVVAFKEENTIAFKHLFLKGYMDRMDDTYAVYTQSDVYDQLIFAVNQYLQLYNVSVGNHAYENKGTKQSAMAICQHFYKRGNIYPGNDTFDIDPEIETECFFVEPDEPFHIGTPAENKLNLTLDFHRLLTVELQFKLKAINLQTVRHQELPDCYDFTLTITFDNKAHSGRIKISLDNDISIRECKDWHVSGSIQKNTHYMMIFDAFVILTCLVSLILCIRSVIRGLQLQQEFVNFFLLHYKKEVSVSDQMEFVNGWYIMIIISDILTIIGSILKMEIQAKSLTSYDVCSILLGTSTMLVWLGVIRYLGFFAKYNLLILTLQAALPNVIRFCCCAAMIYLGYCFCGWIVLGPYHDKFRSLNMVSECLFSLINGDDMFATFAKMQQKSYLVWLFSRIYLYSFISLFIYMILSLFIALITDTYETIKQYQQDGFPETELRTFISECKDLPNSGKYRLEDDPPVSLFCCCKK

Ion channel NompC = Ion channel NompC (Danio rerio, UniProt Q7T1G6); test: Dose response cell-based high-throughput screening assay for agonists of the transient receptor potential channel N1 (TRPN1). [Related pubchem assays (depositor defined):AID1424, AID1448]; format: functional
Sequence of Ion channel NompC (Q7T1G6 whole entry): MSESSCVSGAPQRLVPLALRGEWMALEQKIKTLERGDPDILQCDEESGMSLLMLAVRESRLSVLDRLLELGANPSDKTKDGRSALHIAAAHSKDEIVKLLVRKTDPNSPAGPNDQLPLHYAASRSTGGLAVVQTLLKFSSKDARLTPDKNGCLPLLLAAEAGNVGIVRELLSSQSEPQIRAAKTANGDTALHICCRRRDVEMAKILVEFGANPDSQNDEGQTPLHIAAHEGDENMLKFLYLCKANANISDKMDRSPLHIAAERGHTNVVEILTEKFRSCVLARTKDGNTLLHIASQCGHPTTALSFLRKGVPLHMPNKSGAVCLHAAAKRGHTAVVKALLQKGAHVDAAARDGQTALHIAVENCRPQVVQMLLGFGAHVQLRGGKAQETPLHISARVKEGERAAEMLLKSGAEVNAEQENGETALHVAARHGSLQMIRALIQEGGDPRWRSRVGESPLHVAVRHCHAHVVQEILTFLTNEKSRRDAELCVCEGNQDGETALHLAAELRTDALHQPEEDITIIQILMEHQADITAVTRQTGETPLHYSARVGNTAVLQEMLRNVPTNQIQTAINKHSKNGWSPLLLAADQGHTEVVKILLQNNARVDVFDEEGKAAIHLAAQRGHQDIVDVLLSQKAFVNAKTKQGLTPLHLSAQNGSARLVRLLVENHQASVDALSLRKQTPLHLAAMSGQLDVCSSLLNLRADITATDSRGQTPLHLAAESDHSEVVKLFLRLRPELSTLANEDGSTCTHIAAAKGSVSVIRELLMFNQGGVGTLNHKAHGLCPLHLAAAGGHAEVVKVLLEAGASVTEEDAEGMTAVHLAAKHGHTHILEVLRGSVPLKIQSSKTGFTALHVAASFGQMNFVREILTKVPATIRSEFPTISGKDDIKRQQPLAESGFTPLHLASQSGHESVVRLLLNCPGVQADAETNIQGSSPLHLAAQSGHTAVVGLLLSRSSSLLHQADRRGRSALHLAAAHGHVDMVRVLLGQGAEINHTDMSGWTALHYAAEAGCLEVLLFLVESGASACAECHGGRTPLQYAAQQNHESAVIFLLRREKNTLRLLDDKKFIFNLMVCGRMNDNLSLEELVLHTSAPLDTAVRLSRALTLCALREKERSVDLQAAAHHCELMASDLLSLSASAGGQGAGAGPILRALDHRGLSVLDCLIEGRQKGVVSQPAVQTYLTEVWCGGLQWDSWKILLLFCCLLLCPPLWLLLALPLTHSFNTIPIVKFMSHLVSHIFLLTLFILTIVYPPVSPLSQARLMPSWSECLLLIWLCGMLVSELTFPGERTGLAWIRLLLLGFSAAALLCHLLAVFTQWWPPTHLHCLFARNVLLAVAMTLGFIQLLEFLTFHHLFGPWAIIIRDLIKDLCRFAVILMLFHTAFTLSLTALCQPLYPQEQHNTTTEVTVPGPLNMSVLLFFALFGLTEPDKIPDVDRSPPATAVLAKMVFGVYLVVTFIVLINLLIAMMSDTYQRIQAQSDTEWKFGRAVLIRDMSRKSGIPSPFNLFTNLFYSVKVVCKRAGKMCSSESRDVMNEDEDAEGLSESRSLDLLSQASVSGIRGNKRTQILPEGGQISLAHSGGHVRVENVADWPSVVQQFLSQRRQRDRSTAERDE

[6] = Luminescence Cell-Based Dose Retest to Confirm Inhibitors of Cancer Stem Cells. [Related pubchem assays (depositor defined):AID2717, AID2721]; format: functional; conditions: Homo sapiens
CAAX prenyl protease 2 [7] = target: T5, CAAX prenyl protease 2 (Saccharomyces cerevisiae S288c, UniProt Q03530); format: biochemical
T5 sequence (Q03530 whole entry): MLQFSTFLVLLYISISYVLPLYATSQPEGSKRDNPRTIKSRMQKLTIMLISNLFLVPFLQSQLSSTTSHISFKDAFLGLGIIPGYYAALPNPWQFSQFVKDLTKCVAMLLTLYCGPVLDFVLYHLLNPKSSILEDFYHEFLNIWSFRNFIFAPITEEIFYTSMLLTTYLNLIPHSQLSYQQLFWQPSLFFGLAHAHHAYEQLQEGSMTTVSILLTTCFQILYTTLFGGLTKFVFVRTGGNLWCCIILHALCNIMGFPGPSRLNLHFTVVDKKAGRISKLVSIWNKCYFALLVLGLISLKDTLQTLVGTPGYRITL

Trypsin = Trypsin (Sus scrofa, UniProt P00761); test: trypsin protease activity blockade – biochemical, quenched peptide fluorescence, cherry-pick, selectivity assay for Rce1 protease inhibitor project, dose response (AID 488789)
Sequence of Trypsin (P00761 whole entry): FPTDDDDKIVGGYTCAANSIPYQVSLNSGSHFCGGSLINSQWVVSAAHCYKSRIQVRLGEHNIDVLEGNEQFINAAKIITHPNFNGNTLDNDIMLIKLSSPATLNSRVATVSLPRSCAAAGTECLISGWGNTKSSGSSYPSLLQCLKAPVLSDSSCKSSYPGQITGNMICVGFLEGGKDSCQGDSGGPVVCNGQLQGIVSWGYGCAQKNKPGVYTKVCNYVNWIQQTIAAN

HEK293 [8] = test: cells; format: functional, cell-based; conditions: Homo sapiens
[9] = target: T6, Heat shock factor protein 1 (Mus musculus, UniProt P38532); test: decrease of HSF1-responsive luciferase luminescence – cell-based, NIH3T3, dose retest, confirmation (AID 2382); format: functional;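 further: NIH3T3 fibroblasts with HSF1-driven luciferase reporter stressed by proteasome inhibitor MG132; luminescence from HSF1-driven luciferase expression after 8 hours of MG132 stress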
T6 sequence (P38532 whole entry): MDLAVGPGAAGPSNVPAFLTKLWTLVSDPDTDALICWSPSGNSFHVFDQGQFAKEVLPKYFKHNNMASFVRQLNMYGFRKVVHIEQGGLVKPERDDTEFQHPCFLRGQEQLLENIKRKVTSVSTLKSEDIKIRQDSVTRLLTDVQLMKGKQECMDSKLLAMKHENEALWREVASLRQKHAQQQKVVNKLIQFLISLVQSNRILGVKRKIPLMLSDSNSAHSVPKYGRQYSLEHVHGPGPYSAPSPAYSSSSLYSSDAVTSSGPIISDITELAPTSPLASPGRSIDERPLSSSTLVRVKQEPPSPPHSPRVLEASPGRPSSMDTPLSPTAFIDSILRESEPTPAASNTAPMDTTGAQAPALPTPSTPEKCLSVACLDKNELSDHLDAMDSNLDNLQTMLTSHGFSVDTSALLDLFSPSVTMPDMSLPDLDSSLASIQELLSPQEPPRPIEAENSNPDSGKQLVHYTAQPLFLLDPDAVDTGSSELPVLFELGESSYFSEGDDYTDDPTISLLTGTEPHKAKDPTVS

HEK293 [10] = test: NOD2 signaling inhibitors in MDP-stimulated cells, cell-based, uHTS, luminescence (AID 2001); format: functional; conditions: Homo sapiens
HEK293 [11] = test: cells; format: functional, cell-based; conditions: Homo sapiens; remark: listed apart in the source
HEK293 [12] = test: inhibition of NOD1-driven NF-kB reporter – cell-based, luminescence, uHTS, primary screen (AID 1578); format: functional; conditions: Homo sapiens
[13] = target: Nucleotide-binding oligomerization domain-containing protein 2 (Homo sapiens, UniProt Q9HC29); test: inhibition of NOD2-driven NF-kB reporter – cell-based, luminescence, uHTS, HEK293 (AID 1566); format: functional
CAAX prenyl protease 2 [14] = target: T7, CAAX prenyl protease 2 (Homo sapiens, UniProt Q9Y256); test: inhibition of Ras-converting CAAX protease Rce1 – biochemical, yeast membranes, quenched-peptide fluorescence, cherry-pick, dose response (AID 588849)
T7 sequence (Q9Y256 whole entry): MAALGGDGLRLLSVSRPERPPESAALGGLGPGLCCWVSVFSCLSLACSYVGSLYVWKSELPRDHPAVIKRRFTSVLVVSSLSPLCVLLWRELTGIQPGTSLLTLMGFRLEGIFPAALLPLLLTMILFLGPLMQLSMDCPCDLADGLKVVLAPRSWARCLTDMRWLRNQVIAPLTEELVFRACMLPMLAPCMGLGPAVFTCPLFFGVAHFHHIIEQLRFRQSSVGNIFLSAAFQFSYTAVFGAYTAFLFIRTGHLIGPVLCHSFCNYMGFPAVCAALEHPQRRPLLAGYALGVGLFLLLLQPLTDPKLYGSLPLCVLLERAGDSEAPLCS

[15] = target: T8, Mannose-6-phosphate isomerase (Homo sapiens, UniProt P34949); test: MPI inhibition at elevated mannose 6-phosphate – biochemical, fluorescence intensity, high mannose 6-phosphate, primary screen (AID 1220)
T8 sequence (P34949 whole entry): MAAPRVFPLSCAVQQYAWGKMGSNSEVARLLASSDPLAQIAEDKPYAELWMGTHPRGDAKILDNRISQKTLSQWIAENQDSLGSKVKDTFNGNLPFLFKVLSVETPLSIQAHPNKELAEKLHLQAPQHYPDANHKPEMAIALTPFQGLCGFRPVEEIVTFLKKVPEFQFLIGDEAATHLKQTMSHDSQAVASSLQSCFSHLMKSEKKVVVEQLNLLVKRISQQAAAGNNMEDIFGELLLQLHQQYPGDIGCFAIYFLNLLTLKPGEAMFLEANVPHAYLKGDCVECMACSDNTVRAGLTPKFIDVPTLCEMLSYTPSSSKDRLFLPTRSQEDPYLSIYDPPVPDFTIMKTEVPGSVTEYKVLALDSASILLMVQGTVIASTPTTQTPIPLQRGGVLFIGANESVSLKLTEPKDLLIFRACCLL

Nonstructural protein 1 = Nonstructural protein 1 (Influenza A virus, UniProt Q194T2); format: functional, Influenza A virus (A/California/07/2009(H1N1))
Sequence of Nonstructural protein 1 (Q194T2 whole entry): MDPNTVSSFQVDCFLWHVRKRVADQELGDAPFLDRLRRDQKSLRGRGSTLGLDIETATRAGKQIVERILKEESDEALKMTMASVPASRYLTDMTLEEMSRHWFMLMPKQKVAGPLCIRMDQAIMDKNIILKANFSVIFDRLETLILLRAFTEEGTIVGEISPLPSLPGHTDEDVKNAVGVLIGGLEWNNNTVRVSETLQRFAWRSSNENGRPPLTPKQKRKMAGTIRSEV

[16] = target: T9, Polyadenylate-binding protein 1 (Homo sapiens, UniProt P11940); test: MLLE binding blockers, Cy5 peptide tracer – biochemical, fluorescence polarization, Cy5-PAM2 peptide, secondary, miRNA deadenylation inhibitor project, dose response (AID 602260); format: functional; conditions: read-out: IC50_Mean
T9 sequence (P11940 whole entry): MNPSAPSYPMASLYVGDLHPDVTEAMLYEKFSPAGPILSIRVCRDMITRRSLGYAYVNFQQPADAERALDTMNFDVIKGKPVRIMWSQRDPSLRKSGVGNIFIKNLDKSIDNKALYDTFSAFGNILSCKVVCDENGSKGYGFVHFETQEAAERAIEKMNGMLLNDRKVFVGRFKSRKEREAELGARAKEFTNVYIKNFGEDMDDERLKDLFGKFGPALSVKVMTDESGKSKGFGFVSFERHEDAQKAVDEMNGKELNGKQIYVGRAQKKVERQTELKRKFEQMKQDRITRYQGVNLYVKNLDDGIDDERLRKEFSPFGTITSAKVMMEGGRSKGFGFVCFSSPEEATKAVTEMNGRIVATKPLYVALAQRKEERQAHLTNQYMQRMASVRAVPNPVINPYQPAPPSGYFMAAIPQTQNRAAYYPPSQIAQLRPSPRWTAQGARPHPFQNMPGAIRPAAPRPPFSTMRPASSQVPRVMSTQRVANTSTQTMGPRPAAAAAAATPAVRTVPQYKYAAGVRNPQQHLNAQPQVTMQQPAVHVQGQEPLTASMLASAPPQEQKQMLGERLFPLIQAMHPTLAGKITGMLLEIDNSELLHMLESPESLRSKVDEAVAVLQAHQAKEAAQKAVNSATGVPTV

Estrogen receptor beta = Estrogen receptor beta (Homo sapiens, UniProt Q92731); test: blockers of SRC-3 recruitment to ERβ – biochemical, ELISA, streptavidin-HRP readout, orthogonal assay, confirmation (AID 1060)
Sequence of Estrogen receptor beta (Q92731 whole entry, the tested form may be a part): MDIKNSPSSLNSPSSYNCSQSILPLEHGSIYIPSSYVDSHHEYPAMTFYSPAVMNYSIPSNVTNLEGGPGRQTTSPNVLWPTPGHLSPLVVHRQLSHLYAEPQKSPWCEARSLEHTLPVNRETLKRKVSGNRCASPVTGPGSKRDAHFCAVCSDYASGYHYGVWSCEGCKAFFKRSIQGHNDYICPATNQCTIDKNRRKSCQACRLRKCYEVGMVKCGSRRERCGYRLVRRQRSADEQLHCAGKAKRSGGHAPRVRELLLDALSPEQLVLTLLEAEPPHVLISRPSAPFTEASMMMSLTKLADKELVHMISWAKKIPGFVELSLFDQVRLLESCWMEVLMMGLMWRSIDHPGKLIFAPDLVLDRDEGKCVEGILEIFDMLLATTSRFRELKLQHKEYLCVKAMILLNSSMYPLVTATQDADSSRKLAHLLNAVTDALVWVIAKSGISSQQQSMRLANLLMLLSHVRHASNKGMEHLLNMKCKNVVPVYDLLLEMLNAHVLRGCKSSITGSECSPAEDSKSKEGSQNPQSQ

[17] = target: T9, Polyadenylate-binding protein 1; test: MLLE domain peptide-binding blockers, IC50 – biochemical, fluorescence polarization, FITC-PAM2 peptide, dose response (AID 602259); format: functional; conditions: read-out: IC50_Mean

Sequence of Glyceraldehyde-3-phosphate dehydrogenase (P04406 whole entry): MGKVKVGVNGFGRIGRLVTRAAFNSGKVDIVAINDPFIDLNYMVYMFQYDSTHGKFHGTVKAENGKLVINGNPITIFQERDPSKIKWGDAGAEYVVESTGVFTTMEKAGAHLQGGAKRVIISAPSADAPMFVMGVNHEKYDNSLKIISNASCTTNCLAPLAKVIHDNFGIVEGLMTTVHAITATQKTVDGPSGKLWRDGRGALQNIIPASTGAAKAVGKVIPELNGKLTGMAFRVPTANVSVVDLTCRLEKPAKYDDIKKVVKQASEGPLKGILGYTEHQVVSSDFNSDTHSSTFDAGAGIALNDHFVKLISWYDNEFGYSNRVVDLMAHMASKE

COC(=O)c1cc(-c2ccc(Br)cc2)on1
IC50 [1]: > 100 µM (not active) | IC50 [2]: > 100 µM (inactive) | AC50 [3]: 4.37 µM (active)

O=C(OCc1cc(=O)n2c(n1)sc1ccccc12)c1ccc(O)cc1O
IC50 [4]: 50 µM (inactive)

CNS(=O)(=O)c1cccc(C(=O)OCC(=O)c2cc3ccccc3o2)c1
EC50 (Beta-galactosidase): > 40 µM (inactive) | IC50 [5]: 15.5 µM (active)

S=C(NCCCc1ccccc1)Nc1ccccc1Cl
EC50 (Mucolipin-3): > 29.9 µM (not active) | EC50 (Ion channel NompC): > 29.9 µM (inactive)

CS(=O)(=O)Nc1ccccc1C(=O)Nc1cccc(Cl)c1
AC50 [6]: 45.2 µM (active) | AC50 (CAAX prenyl protease 2 [7]): 21.8 µM (active) | AC50 (Trypsin): 6.73 µM (active)

O=[N+]([O-])c1ccc(Oc2ccc(S(=O)(=O)Nc3ccccc3)cc2)cc1
EC50 (Mucolipin-3): > 29.9 µM (not active) | EC50 (Ion channel NompC): > 29.9 µM (inactive)

CCOc1ccccc1-n1c(SCC(=O)Nc2ccccc2C(=O)O)nc2ccccc2c1=O
IC50 (HEK293 [8]): > 20 µM (inactive) | EC50 [9]: 4.46 µM (active) | IC50 (HEK293 [10]): > 20 µM (inactive) | IC50 (HEK293 [11]): > 20 µM (inactive) | EC50 (HEK293 [12]): > 20 µM (inactive) | EC50 [13]: > 20 µM (inactive)

COC(=O)Cn1c(CCC(=O)O)ccc1-c1ccccc1
AC50 (CAAX prenyl protease 2 [14]): 32.7 µM (active)

COc1ccc(Br)cc1S(=O)(=O)n1cc(C(N)=O)c2ccccc21
IC50 [1]: > 100 µM (not active) | IC50 [2]: > 100 µM (inactive)

CCOC(=O)N1CCN(C(c2cccnc2)c2ccc3cccnc3c2O)CC1 (stereo not drawn)
IC50 [15]: 32 µM (active) | IC50 [4]: > 64 µM (inactive) | IC50 (Nonstructural protein 1): 14.6 µM (active) | IC50 [16]: > 66 µM (inactive) | IC50 (Estrogen receptor beta): 10.6 µM (not active) | IC50 [17]: > 66 µM (inactive)
